From patent US7670838B2, “Coupling of excitation and neurogenesis in neural stem/progenitor cells” (priority 2004, dated 2010)
“Also recorded” adds a separate entry of the source.

Experiments:
[1] = tested on: adult hippocampal NPCs in vivo; assay: In vivo neurogenesis assay (BrdU labeling, hippocampus); set-up: species or system rat; conditions: for neuronal fraction of newborn cells: 1 mg/kg
[2] = Tolerability of treatments in the in vivo neurogenesis assay; conditions: 4 mg/kg
adult hippocampal NPCs = assay: Neurogenesis from adult NPCs on ethanol-fixed hippocampal substrate (MAP2ab); type: cell-based, rat; conditions: for neurogenesis with the agonist as stimulus: FPL 64176 5 μM, NMDA 50 μM
Procedure: Hippocampal cell culture. […] Tissue was treated with papain (20 U/ml) in 10 ml of this solution with additional (in mM) 1.7 cysteine, 1 CaCl2, and 0.5 EDTA for 45 min at 37° C. The digestion was stopped by replacing the solution with 10 ml of MEM/Earle's salts without L-glutamine along with 20 mM glucose, Serum Extender (1:1000), and 10% heat-inactivated fetal bovine serum containing 25 mg of bovine serum albumin (BSA) and 25 mg of trypsin inhibitor. The tissue was triturated in a small volume of this solution with a fire-polished Pasteur pipette, and ˜100,000 cells in 1 mL plated per coverslip in 24-well plates. Glass coverslips (pre-washed overnight in HCl followed by several 100% EtOH washes and flame sterilization) were coated overnight at 37° C. with 1:50 Matrigel (Collaborative Biomedical Products, Bedford, Mass.). Cells were plated in culture medium, Neurobasal containing 2× B-27 (Life Technologies) and 2 mM Glutamax-I (Life Technologies). […] For lightly fixed tissue experiments, stem/progenitor cells were plated after hippocampal cultures at 7 DIV were exposed to 70% EtOH at −20° C. for 30 min, then washed 2× in sterile PBS.
(§1) Stem cell coculture. […] Mitotic inhibitor FUDR (5-fluoro-2′-deoxyuridine) was included with uridine at 0.3 mM unless otherwise indicated at the start of the sixth day post-plating, after cell cycle exit and initiation of differentiation, to allow for long term culture (in some experiments 50 μM D-AP5 (RBI) was also included as noted in the text). Thereafter cultures were supplemented with NT3 to 20 ng/mL every 2-3 days until cocultures were 9-16 days old (control and experimental conditions were always conducted in parallel and therefore were age-matched at all times), at which point neurogenesis assays were performed.
(§2) Excitation of NPCs in coculture. […] Divalent cation concentration was maintained constant in external calcium variation experiments by replacement with equimolar magnesium. […] Persistent stimuli were used except where noted, to mimic areas of local persistent high activity and to avoid rebound or washoff effects. […] An advantage of using depolarization for these brief stimuli is that the logarithmic dependence of depolarization on extracellular potassium described by the Nernst equation obviates the need for extensive washing of the stimulated sample prior to reapplication of the control medium.
(§3) Immunocytochemistry and transfection. Cells were fixed in 4% formaldehyde (EM Sciences)/PBS for 20-30 min, washed 3×5 min in PBS/0.1 M glycine, permeabilized for 5 min in 0.1% Triton/PBS/3% BSA, washed 3×5 min in PBS/glycine, blocked for 1-2 hr in PBS/3% BSA, and incubated overnight at 4° C. in PBS/3%BSA/primary antibodies. Cells were then washed 3×5 min in PBS, incubated for 1 hr at 37° C. in PBS/3%BSA/secondary antibodies, washed 3×10 min in PBS, and mounted in Fluoromount (Electron Microscopy Sciences). TUNEL staining was performed with Apoptag Red (Serologicals). […] Cotransfections were carried out with Lipofectamine 2000 according to the manufacturer's instructions immediately after NPC plating. […] As with all experiments, stimulation or control conditions were initiated 24 hr after transfection on Day 1.
Confocal imaging and analysis. Images were acquired on a Zeiss LSM confocal microscope. Random fields containing GFP+ cells were selected for acquisition under GFP excitation without knowledge of experimental condition, and subsequently scanned using laser lines appropriate to excite the fluorophores corresponding to MAP2ab and other antigens. Data were analyzed using Metamorph software from Universal Imaging.

[3] = tested on: adult rat hippocampal NPCs; assay: Neurogenesis from adult NPCs in living hippocampal coculture (MAP2ab); type: cell-based
Procedure: as §1, §2, §3
Confocal imaging and analysis. Images were acquired on a Zeiss LSM confocal microscope. Random fields containing GFP+ cells were selected for acquisition under GFP excitation without knowledge of experimental condition, and subsequently scanned using laser lines appropriate to excite the fluorophores corresponding to MAP2ab and other antigens. Data were analyzed using Metamorph software from Universal Imaging. […] Mean data from 12 independent experiments conducted with potassium depolarization were used as the reference point for effects of pharmacological interventions in coculture. For evaluation of proliferation and survival effects, daily cell counts as well as TUNEL and BrdU staining were performed in parallel stimulated and unstimulated cultures. BrdU was applied to cultures at 5 μM for 2 hr, and BrdU staining was conducted with a 20-30 min postfixation and subsequent incubation at 37° C. for 20-30 min in 1 N HCl. For Ca^2+ imaging, x-Rhod-1 AM (Molecular Probes) was loaded at 10 μM for 30 min at 37° C. into cells on the fixed coculture substrate 1-2 days after initiation of mitogen taper.

[4] = rat, in vivo
[5] = tested on: voltage-activated Na+ current; type: cell-based, rat
[6] = tested on: adult rat hippocampal NPCs; assay: Miniature EPSC recording of NPC progeny in coculture; type: cell-based; conditions: living coculture
[7] = tested on: proliferating adult-derived NPCs; type: cell-based, rat; conditions: fixed substrate; x-Rhod-1
[8] = adult rats, 4 mg/kg daily for 1 week, not statistically significant
[9] = rats, 1 mg/kg for 1 week, 30 days after treatment
[10] = anti-mitotic agent added at day 1

CN1C(=O)CN=C(c2ccccc2)c2cc(Cl)ccc21 [diazepam]
GFAP/BrdU double-positive cells (astroglial phenotype) ([1]; rat, in vivo, 4 mg/kg): 58.5%
NG2/BrdU double-positive cells (oligodendroglial phenotype) ([1]; rat, in vivo, 4 mg/kg): 4.7%
fraction of newborn (BrdU+) cells assuming the neuronal phenotype (Dcx+) ([1]; rat, in vivo, 4 mg/kg): significant reduction

COC(=O)c1c(C)[nH]c(C)c1C(=O)c1ccccc1Cc1ccccc1 [FPL 64176]
fraction of newborn (BrdU+) cells assuming the neuronal phenotype (Dcx+) ([1]; adult rats, 4 mg/kg daily for 1 week): relative increase
overt dystonias [2]: did not lead to overt dystonias
treated animals that died shortly before sacrifice ([2]; 7th experimental day): two
neurogenesis with the agonist as stimulus (adult hippocampal NPCs; fixed substrate): enhancement of neurogenesis
neurogenesis after three 5 min pulses (adult hippocampal NPCs; fixed substrate, pulses on days 1, 3 and 5): enhanced neurogenesis to a similar extent as continuous excitatory stimulation; also recorded: effective

CN[C@H](CC(=O)O)C(=O)O [NMDA]
neurogenesis with the agonist as stimulus (adult hippocampal NPCs; fixed substrate): significant increase

NC(CCCP(=O)(O)O)C(=O)O [D-AP5]
neurogenesis enhancement by excitation (adult hippocampal NPCs; delayed application of D-AP5 on day 5, n=7): 2.76±0.95 fold
excitation-induced neurogenesis (adult hippocampal NPCs; fixed substrate, K+ depolarization, nifedipine 10 μM, D-AP5 50 μM): inhibited
basal neurogenesis (adult hippocampal NPCs; fixed substrate, no stimulation, D-AP5 50 μM): inhibited
neurogenesis in the basal (Na) condition [3]: significant inhibition
excitation-induced neurogenesis ([3]; depolarization or glutamate, D-AP5 50 μM): blocked

COC(=O)C1=C(C)NC(C)=C(C(=O)OC)C1c1ccccc1[N+](=O)[O-] [nifedipine]
GFAP/BrdU double-positive cells (astroglial phenotype) [1, 8]: 58.8%
NG2/BrdU double-positive cells (oligodendroglial phenotype) [1, 8]: 3.5%

COC(=O)C1=C(C)NC(C)=C([N+](=O)[O-])C1c1ccccc1C(F)(F)F (centres unmarked) [BayK 8644]
tolerability [4]: well-tolerated
increase in total newborn cell number versus control [1, 9]: 2.5 fold
neuronal fraction of newborn cells [1, 9]: 120±11 % of control
neuronal fraction of newborn cells ([1]; rats, 1 mg/kg for 1 week, 30 days after treatment, listed as BayK): 120%±11%
total BrdU+ cells per hippocampus (subgranular zone and hilus) ([1]; rats, 1 mg/kg for 1 week, 30 days after treatment, unbiased stereology): 19633±2677

NC1=N[C@H](O)[C@H]2[C@H]3O[C@]4(O)O[C@@H]([C@@H](O)[C@@]2(N1)[C@@H]4O)[C@]3(O)CO [TTX, Tetrodotoxin]
inward Na+ current evoked with a step from -70 mV to -10 mV [5]: reversibly blocked

O=c1[nH]c(=O)n([C@H]2C[C@H](O)[C@@H](CO)O2)cc1F [FUDR, 5-fluoro-2′-deoxyuridine]
cells killed (adult hippocampal NPCs; [10]): more than 95%
neurogenic effects of excitation (adult hippocampal NPCs; [10]): abolished

N[C@@H](CCC(=O)O)C(=O)O [glutamate]
fraction of adult NPCs that received functional excitatory synaptic connections (mEPSCs) [6]: increase
cells showing an increase in intracellular Ca2+ [7]: 44 of 73
mean MAP2ab intensity in the resulting neuronal progeny [3]: no effect
fraction of NPCs becoming neurons (MAP2ab+) ([3]; 50 μM glutamate from day 1): increase; also recorded: increased neurogenesis
fraction of NPCs becoming neurons (MAP2ab+) ([3]; 50 μM glutamate from day 1, listed as Glu): promoted neurogenesis
